Reference: patent publication US8703114B2, “Conjugate of a polymer, an anti-angiogenesis agent and a targeting moiety, and uses thereof in the treatment of bone related angiogenesis conditions” (priority 2008, dated 2014)
Like-named read-outs stand apart in the source and are kept apart here.

Tests used:
HUVEC [1] = test: HUVEC cell proliferation assay; settings: for IC30 of HUVEC proliferation / IC70 of HUVEC proliferation: single treatment
Method: HUVEC were plated at 10,000 cells/well onto 24-well culture plates in EBM-2 supplemented with 5% FBS and incubated for 24 hours (37° C.; 5% CO2). Medium was replaced with 2.5% endothelial cell basal medium-2 (EBM-2) supplemented with 1% Endothelial cell growth supplement (ECGS). Human osteosarcoma Saos-2 or MG-63-Ras cells were plated at 2500 cells/well in DMEM supplemented with 5 FBS and incubated for 24 hours (37° C.; 5% CO2). The medium was then replaced with DMEM supplemented with 10% FBS. Cells were exposed to ALN, TNP-470, and HPMA copolymer-ALN-TNP-470 conjugate or with equivalent concentrations of combinations of free ALN and TNP-470 at serial dilutions. HUVEC were also incubated with or without 1 μM of cathepsin-K inhibitor III. Control cells were grown in the presence or absence of growth factors. HUVEC or Saos-2 viable cells were counted by a Z1 Coulter® Particle Counter (Beckman Coulter™) or by XTT reagent respectively after 72 hours of incubation.
IC50 represents the concentration of a drug that is required for 50% inhibition in vitro. The IC30, 50, 70 values of treatment with ALN, TNP-470 and their respective combinations from HUVEC proliferation assay were collected. IC30, 50, 70 values of TNP-470 and ALN were marked on X, Y axis respectively and a line which represents additive effect was drawn between each inhibitory concentration (IC). The combination index (CI) of each treatment was calculated according to the classic isobologram equation CI=[(D)1/(Dx)1]+[(D)2/(Dx)2] as previously described [Chou T. C. Pharmocol Rev 2006; 58:621-681]. Area on the right side of each IC additive line represents antagonist effect while the left side represents synergic effect.

[2] = system: Saos-2 human osteosarcoma cells; test: Saos-2 cell proliferation assay; type: cell-based
Method: (§1) Human osteosarcoma Saos-2 or MG-63-Ras cells were plated at 2500 cells/well in DMEM supplemented with 5 FBS and incubated for 24 hours (37° C.; 5% CO2). The medium was then replaced with DMEM supplemented with 10% FBS. Cells were exposed to ALN, TNP-470, and HPMA copolymer-ALN-TNP-470 conjugate or with equivalent concentrations of combinations of free ALN and TNP-470 at serial dilutions. […] Control cells were grown in the presence or absence of growth factors. HUVEC or Saos-2 viable cells were counted by a Z1 Coulter® Particle Counter (Beckman Coulter™) or by XTT reagent respectively after 72 hours of incubation.

[3] = system: MG-63-Ras human osteosarcoma cells; test: MG-63-Ras cell proliferation assay; type: cell-based
Method: as §1

[4] = Hydroxyapatite binding assay; settings: PBS pH 7.4
Method: In order to assess the ability of HPMA copolymer-ALN-TNP-470 conjugate to bind to bone mineral, its binding potency to hydroxyapatite (HA) was evaluated. HPMA copolymer-ALN-TNP-470 conjugate was dissolved in phosphate buffered saline (PBS), pH 7.4 (1 mg/ml). The conjugate solution (500 μl) was incubated with hydroxyapatite powder (15 mg), in 500 μl PBS, pH 7.4. HPMA copolymer-Gly-Phe-Leu-Gly was used as control. Incubated samples were centrifuged at 6000 RPM for 3 minutes and a sample from the upper layer (100 μl) was collected at selected time points. FPLC analysis using HighTrap desalting column (Amersham®) was used for detection of unbound conjugate in the samples (FPLC conditions: AKTA™ Purifier®, mobile phase 100% DDW, 2 ml/minute, 215 nm). Hydroxyapatite binding kinetic analysis of the conjugate was performed using the Unicorn® AKTA™ software. Areas under the curve (AUC) were calculated from chromatographs at each time point. AUC of each hydroxyapatite incubated conjugate chromatogram was normalized to percent AUC of conjugate sample in the absence of hydroxyapatite used as control.

HUVEC [5] = test: HUVEC migration assay towards VEGF; type: cell-based, human
Method: Cell migration assays were performed using modified 8 μm Boyden chambers coated with 10 μg/ml fibronectin. […] Following incubation, cells were allowed to migrate to the underside of the chamber for 4 hours in the presence or absence of Vascular endothelial growth factor (VEGF) (20 ng/ml) in the lower chamber. Cells were then fixed with ice-cold […] and stained using Hema 3 Stain System. The stained migrated cells were imaged using Nikon TE2000E inverted microscope integrated with Nikon DS5 cooled CCD camera by 10× objective, brightfield illumination. Migrated cells from the captured images per membrane were counted using NIH image software. Migration was normalized to percent migration, with 100% representing VEGF dependent migration of cells which were not incubated with free or HPMA-conjugated ALN and TNP-470.

HUVEC [6] = test: Capillary-like tube formation assay; type: cell-based, human
Method: The surface of 24-well plates was coated with Matrigel® basement membrane (50 μl/well; 10 mg/ml) on ice and was allowed to polymerize at 37° C. for 30 minutes. […] After 8 hours of incubation (37° C.; 5% CO2), wells were imaged using Nikon TE2000E inverted microscope integrated with Nikon DS5 cooled CCD camera by 4× objective, brightfield illumination. […]

[7] = system: VEGF-induced extravasation of Evans blue dye; test: Miles vascular permeability assay; type: in vivo, Balb/c mice; settings: 30 mg/kg TNP-470 equivalents s.c., assay three days later
Method: Balb/c male mice were injected subcutaneously (s.c.) with TNP-470, HPMA copolymer-ALN-TNP-470 conjugate (30 mg/kg TNP-470 equivalents) or saline (n=5 mice/group). Three days later, a modified Miles assay was performed as previously described [Claffey et al. 1996, Cancer Res 56: 172-181; Miles & Miles 1952, J Physiol 118:228-257]. Briefly, Evans blue dye (100 μl of a 1% solution in 0.9% NaCl) was injected into the retro-orbital plexus of the mice. Ten minutes later, 50 μl of human VEGF165 (1 ng/μl) or PBS were injected intradermally into the pre-shaved back skin. Twenty minutes later, the animals were killed, and an area of skin that included the entire injection site was removed. Evans blue dye was extracted from the skin by incubation with formamide for 5 days at room temperature, and the absorbance of the extracted dye was measured at 620 nm. Data is expressed as mean±standard error of the mean (s.e.m.).

[8] = system: mCherry-labeled MG-63-Ras human osteosarcoma; test: Antitumor activity on MG-63-Ras human osteosarcoma in mice; type: in vivo, SCID mice; settings: day 19, 30 mg/kg q.o.d. 3 times s.c.
Method: SCID male were inoculated s.c. with 5×10^5 mCherry-labeled MG-63-Ras human osteosarcoma. Mice bearing 70 mm^3 tumors were injected s.c. with combination of free ALN and TNP-470 (1:1, 30 mg/kg), FITC-labeled HPMA copolymer-ALN-TNP-470 conjugate (30 mg/kg q.o.d.×3 times TNP-470-equivalent dose) or saline (n=5 mice/group). Therapy was initiated at a relatively early state (70 mm^3) in order to imitate a metastatic scenario as well as an early primary osteosarcoma. Tumor progression was monitored by caliper measurement (width×length^2×0.52) and by CRI™ Maestro non-invasive intravital imaging system. At termination, tumors were dissected, weighed and analyzed. Data is expressed as mean±standard error of the mean (s.e.m.).
CRI Maestro™ non-invasive fluorescence imaging system was used to follow tumor progression of mice bearing mCherry-labeled MG-63-Ras human osteosarcoma tumors and for biodistribution studies of FITC-labeled HPMA copolymer-ALN-TNP-470 conjugate. Mice were maintained on a non-fluorescent diet (Harlan) for the whole period of the experiment. Mice were anesthetized using ketamine (100 mg/kg) and xylazine (12 mg/kg), treated with a depilatory cream (Veet®) and placed inside the imaging system. Alternatively, selected organs from mice were dissected and placed inside the imaging system. […]

[9] = system: MG-63-Ras human osteosarcoma tumors; test: Immunohistochemistry of tumors (H & E, CD34 microvessel density); type: in vivo, mice
Method: Immunohistochemistry of tumor nodules was performed using 5 μm thick formalin-fixed, paraffin-embedded tissue sections. Paraffin sections were de-paraffinized, rehydrated, and stained by hematoxylin and eosin (H & E). For CD34 staining (an endothelial cell marker), slides were deparaffinized and pre-treated with 10 mM citrate, pH 6.0 for 50 min in a steam pressure cooker (Decloaking Chamber, BioCare Medical, Walnut Creek, Calif.). All further steps were performed at room temperature in a hydrated chamber. Slides were covered with Peroxidase Block (Merck, Germany) for 5 minutes to quench endogenous peroxidase activity, followed by incubation with 10% of rabbit serum in 50 mM Tris-HCl, pH 7.4, for 30 min to block non-specific binding sites. Primary rat anti-murine CD34 antibody (MEC 14.7 1:50 dilution; Abcam, Cambridge, Mass.) was applied in 1% rabbit serum in Tris-HCl, pH 7.4 at room temperature for 1 hour. Slides were washed in 50 mM TrisHCl, pH 7.4 and rabbit anti-rat antibody (1:750 dilution; Vector Laboratories, CA, USA) was applied for 30 minutes, followed by anti-rabbit horseradish peroxidase-conjugated antibody (ABC detection kit, Vector Laboratories, CA, USA). Following further washing, immunoperoxidase staining was developed using a ImmPACT™ DAB diluent kit (Vector Laboratories, CA, USA) per the manufacturer instructions and counterstained with methyl green. Microvessel density (MVD) was calculated as previously described [Weidner et al. 1991, N Engl J Med 324:1-8].

[10] = equivalent concentration 0.1 nM
[11] = Homo sapiens, HUVEC, read-out: IC50 of HUVEC proliferation

HPMA-Gly-Gly-Pro-Nle-ALN-TNP-470 [HPMA copolymer-ALN-TNP-470 conjugate]
Cytotoxic effect on HUVEC at doses higher than (HUVEC [1]; ALN and TNP-470 equivalent concentrations): > 10 nM
Concentrations inhibiting HUVEC proliferation in the presence of cathepsin K inhibitor III (HUVEC [1]; ALN-equivalent concentrations, 72 hours): higher than 4 μM
Shift of concentration inhibiting HUVEC proliferation in presence vs absence of cathepsin K inhibitor III (HUVEC [1]; higher concentration in presence of inhibitor): 4 logs
IC50 (HUVEC [1]; read-out: IC50 of ECGS-induced HUVEC proliferation, ALN and TNP-470 equivalent concentrations, 72 hours): 0.001 µM
IC50 (HUVEC [1]; read-out: IC50 of HUVEC proliferation in the presence of cathepsin K inhibitor III, 1 μM cathepsin K inhibitor III): 4.2 µM
IC50 [2]: 30 µM
IC50 [3]: 10 µM
Conjugate bound to hydroxyapatite ([4]; 2 minutes of incubation): 50%
Conjugate bound to hydroxyapatite ([4]; plateau after 175 minutes of incubation): 92%
Inhibition of chemotactic migration response to VEGF (HUVEC [5]; [10]): 18%
Inhibition of chemotactic migration response to VEGF (HUVEC [5]; equivalent concentration 1 nM): 35%
Inhibition of chemotactic migration response to VEGF (HUVEC [5]; equivalent concentration 10 nM): 61%
Inhibition of capillary-like tube length vs untreated control (HUVEC [6]; equivalent concentration 0.01 nM): 29%
Inhibition of capillary-like tube length vs untreated control (HUVEC [6]; [10]): 54%
Inhibition of capillary-like tube length vs untreated control (HUVEC [6]; equivalent concentration 1 nM): 64%
Inhibition of VEGF-induced extravasation of Evans blue dye vs vehicle [7]: 92%
Tumor growth inhibition [8]: 96%
Microvessel density (MVD) ([9]; CD34 staining): 32±9 microvessels/mm^2
Reduction in microvessel density (MVD) vs control ([9]; CD34 staining): 74%
Tumor histology (H & E) ([9]; mouse, in vivo): almost regressed

CO[C@@H]1[C@H](OC(=O)NC(=O)CCl)CC[C@]2(CO2)[C@H]1[C@@]1(C)O[C@@H]1CC=C(C)C [TNP-470]
Inhibition of HUVEC proliferation, free vs conjugated TNP-470 (HUVEC [1]): inhibited similarly
IC50 (HUVEC [1]; [11]): 0.0001 µM
IC30 of HUVEC proliferation (HUVEC [1]): 2.5e-07 µM
IC70 of HUVEC proliferation (HUVEC [1]): 1 µM
Inhibition of chemotactic migration response to VEGF (HUVEC [5]; equivalent concentrations of 0.1, 1 and 10 nM): dramatically inhibited

NCCCC(O)(P(=O)(O)O)P(=O)(O)O [ALN, (4-amino-1-hydroxybutylidene)bisphosphonic acid]
Dose dependence of inhibition of ECGS-induced HUVEC proliferation (HUVEC [1]): inhibited at a dose dependent manner
IC50 (HUVEC [1]; [11]): 50 µM
IC30 of HUVEC proliferation (HUVEC [1]): 10 µM
IC70 of HUVEC proliferation (HUVEC [1]): 90 µM
Dose dependence of inhibition of Saos-2 proliferation [2]: inhibited at a dose dependent manner
